Experimental data reported in ChEMBL document CHEMBL1201862, “PubChem BioAssay data set” (2004).
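1) Cells in 96-well plates. 2) Compound, 48 h, 5 concentrations. 3) Linear interpolation between surrounding doses. 4) Unreached endpoint = highest concentration. The concentration for 50% growth inhibition is given as GI50.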 Active and inactive are the calls of the source. No stated cut-off is given here; in the data, active = GI50 up to about 1.1 µM and inactive = higher.

How the values were obtained:
Assay in all cases: DTP human tumour cell line panel, 48 h
[1] = tested on: SF-539
[2] = tested on: SK-OV-3
[3] = tested on: OVCAR-8
[4] = tested on: CAKI-1
[5] = tested on: IGROV-1
[6] = tested on: MDA-MB-435
[7] = tested on: A549
[8] = tested on: OVCAR-5
[9] = tested on: MCF7
[10] = tested on: K562
[11] = tested on: MDA-N
[12] = tested on: RXF 393
[13] = tested on: NCI-H522
[14] = tested on: MOLT-4
[15] = tested on: KM12
[16] = tested on: A498
[17] = tested on: HOP-92
[18] = tested on: SK-MEL-5
[19] = tested on: TK-10
[20] = tested on: DU-145
[21] = tested on: PC-3
[22] = tested on: SK-MEL-2
[23] = tested on: M14
[24] = tested on: HCT-15
[25] = tested on: SR
[26] = tested on: SNB-75
[27] = tested on: SK-MEL-28
[28] = tested on: UO-31
[29] = tested on: HOP-62
[30] = tested on: Hs-578T
[31] = tested on: T47D
[32] = tested on: MDA-MB-231
[33] = tested on: SF-295
[34] = tested on: HCC 2998
[35] = tested on: SN12C
[36] = tested on: UACC-257
[37] = tested on: OVCAR-3
[38] = tested on: HL-60
[39] = tested on: NCI-H23
[40] = tested on: LOX IMVI
[41] = tested on: U-251
[42] = tested on: OVCAR-4
[43] = tested on: RPMI-8226
[44] = tested on: CCRF-CEM
[45] = tested on: SF-268
[46] = tested on: UACC-62
[47] = tested on: HT-29
[48] = tested on: COLO 205
[49] = tested on: 786-0
[50] = tested on: NCI-H460
[51] = tested on: BT-549
[52] = tested on: SNB-19
[53] = tested on: SW-620
[54] = tested on: Malme-3M
[55] = tested on: NCI/ADR-RES
[56] = tested on: HCT-116
[57] = tested on: ACHN
[58] = tested on: EKVX
[59] = tested on: NCI-H226

CCOP(=O)(OCC)/C(F)=C/c1ccccc1
GI50 [1]: > 100 µM (inactive) | GI50 [2]: > 100 µM (inactive) | GI50 [3]: > 100 µM (inactive) | GI50 [4]: > 100 µM (inactive) | GI50 [5]: > 100 µM (inactive) | GI50 [6]: > 100 µM (inactive) | GI50 [7]: > 100 µM (inactive) | GI50 [8]: > 100 µM (inactive) | GI50 [9]: > 100 µM (inactive) | GI50 [10]: > 100 µM (inactive) | GI50 [11]: > 100 µM (inactive) | GI50 [12]: > 100 µM (inactive) | GI50 [13]: > 100 µM (inactive) | GI50 [14]: > 100 µM (inactive) | GI50 [15]: > 100 µM (inactive) | GI50 [16]: > 100 µM (inactive) | GI50 [17]: > 100 µM (inactive) | GI50 [18]: > 100 µM (inactive) | GI50 [19]: > 100 µM (inactive) | GI50 [20]: > 100 µM (inactive) | GI50 [21]: > 100 µM (inactive) | GI50 [22]: > 100 µM (inactive) | GI50 [23]: > 100 µM (inactive) | GI50 [24]: > 100 µM | GI50 [25]: > 100 µM (inactive) | GI50 [26]: > 100 µM (inactive) | GI50 [27]: > 100 µM (inactive) | GI50 [28]: 95.9 µM (inactive) | GI50 [29]: > 100 µM (inactive) | GI50 [30]: > 100 µM (inactive) | GI50 [31]: > 100 µM (inactive) | GI50 [32]: > 100 µM (inactive) | GI50 [33]: > 100 µM (inactive) | GI50 [34]: > 100 µM (inactive) | GI50 [35]: > 100 µM (inactive) | GI50 [36]: > 100 µM (inactive) | GI50 [37]: > 100 µM (inactive) | GI50 [38]: > 100 µM (inactive) | GI50 [39]: > 100 µM (inactive) | GI50 [40]: > 100 µM (inactive) | GI50 [41]: > 100 µM (inactive) | GI50 [42]: > 100 µM (inactive) | GI50 [43]: > 100 µM (inactive) | GI50 [44]: > 100 µM (inactive) | GI50 [45]: > 100 µM (inactive) | GI50 [46]: > 100 µM (inactive) | GI50 [47]: > 100 µM (inactive) | GI50 [48]: > 100 µM (inactive) | GI50 [49]: > 100 µM (inactive) | GI50 [50]: > 100 µM (inactive) | GI50 [51]: > 100 µM (inactive) | GI50 [52]: > 100 µM (inactive) | GI50 [53]: > 100 µM (inactive) | GI50 [54]: > 100 µM (inactive) | GI50 [55]: > 100 µM (inactive) | GI50 [56]: > 100 µM (inactive) | GI50 [57]: > 100 µM (inactive) | GI50 [58]: > 100 µM (inactive)

O=C1/C(=C2/C(=O)N(c3ccccc3)c3ccccc32)Nc2ccccc21
GI50 [2]: 43.6 µM (inactive) | GI50 [3]: 47.8 µM (inactive) | GI50 [4]: 45.5 µM (inactive) | GI50 [5]: 19.8 µM (inactive) | GI50 [6]: 66.8 µM (inactive) | GI50 [7]: 37.2 µM (inactive) | GI50 [8]: 51.1 µM (inactive) | GI50 [9]: 11.9 µM (inactive) | GI50 [10]: 42.2 µM (inactive) | GI50 [11]: > 100 µM (inactive) | GI50 [12]: 15 µM (inactive) | GI50 [13]: 66.5 µM (inactive) | GI50 [14]: 35.2 µM (inactive) | GI50 [15]: > 100 µM (inactive) | GI50 [16]: 24.5 µM (inactive) | GI50 [17]: 25.9 µM (inactive) | GI50 [18]: 22.3 µM (inactive) | GI50 [19]: 27 µM (inactive) | GI50 [20]: 27 µM (inactive) | GI50 [21]: 26.7 µM (inactive) | GI50 [22]: 35.5 µM (inactive) | GI50 [23]: 38.1 µM (inactive) | GI50 [24]: 50 µM | GI50 [25]: 61.2 µM (inactive) | GI50 [26]: 14.9 µM (inactive) | GI50 [27]: > 100 µM (inactive) | GI50 [28]: 43.7 µM (inactive) | GI50 [29]: 31.8 µM (inactive) | GI50 [30]: 58.2 µM (inactive) | GI50 [31]: 0.571 µM (active) | GI50 [32]: 18.9 µM (inactive) | GI50 [33]: 48.4 µM (inactive) | GI50 [34]: 32.3 µM (inactive) | GI50 [35]: 59.8 µM (inactive) | GI50 [36]: 37.4 µM (inactive) | GI50 [37]: 52 µM (inactive) | GI50 [39]: 63.5 µM (inactive) | GI50 [40]: 78.3 µM (inactive) | GI50 [41]: 31.8 µM (inactive) | GI50 [42]: 25.5 µM (inactive) | GI50 [43]: > 100 µM (inactive) | GI50 [44]: 92.3 µM (inactive) | GI50 [45]: 36.4 µM (inactive) | GI50 [46]: > 100 µM (inactive) | GI50 [47]: 59 µM (inactive) | GI50 [48]: 24.7 µM (inactive) | GI50 [49]: 15 µM (inactive) | GI50 [59]: 27.9 µM (inactive) | GI50 [50]: 46.2 µM (inactive) | GI50 [51]: 45 µM (inactive) | GI50 [52]: 29.6 µM (inactive) | GI50 [53]: 63.1 µM (inactive) | GI50 [54]: 73.1 µM (inactive) | GI50 [55]: > 100 µM (inactive) | GI50 [56]: 36.6 µM (inactive) | GI50 [57]: 21.2 µM (inactive) | GI50 [58]: 24.2 µM (inactive)
